Measured values: patent US8084431B2, “Method for inhibiting activation of macrophages, inhibiting formation of osteoclasts, inhibiting function of osteoclasts, and/or activating osteoblasts” (China Medical University, priority 2008, dated 2011)

Test system: ovariectomized ICR mice
Assay: Osteoporosis of ovariectomized ICR mice
Type: in vivo
Conditions: for bone volume/tissue volume / the number of trabecula: femur, micro computed tomography; for bone volume/tissue volume / the number of trabecula / CTx / osteocalcin: 3 weeks; for CTx / osteocalcin: serum
Procedure: First, the ovaries of ICR mice were removed. After 3 days, the ICR mice were administrated with various dosages (0, 100, and 300 mg/kg) of kinsenoside, respectively. Herein, the unit “mg/kg” means that the dosage (mg) required for each kilogram of the body weight of an animal. After 3 weeks, the ICR mice were sacrificed. ELISA was used to determine the content of osteocalcin and C-terminal cross-lined telopeptides of type I collagen (CTx) in serum. The reagents for determining osteocalcin and CTx were purchased from IDS Nordic A/S, Herlev, Danmarkids. The femurs of the sacrificed ICR mice were taken, and were photographed by a micro computed tomography (SkyScan 1076, Kontizh, Belgium). The computerized axial tomography is shown in FIG. 10, and the ratio of bone volume to tissue volume and the number of trabecula were analyzed with analysis software. Then, the femurs were decalcified and were frozen sectioned. Osteoclasts in the femurs were stained with a TRAP stain reagent.

## O=C1C[C@@H](OC2OC(CO)C(O)C(O)C2O)CO1 (stereo partly drawn) [kinsenoside, 3-(R)-3-β-D-glucopyranosyloxy-butanolide]
Compared to ICR mice that are not ovariectomized, FIG. 10
  bone tissues of the femurs in micro computed tomography: return to a normal state
Kinsenoside 100 mg/kg
  bone volume/tissue volume: 19.9 ± 1.5 %
  the number of trabecula: 12.2 ± 1.5 cm⁻¹
  CTx: 29.7 ± 6.9 ng/mL
  osteocalcin: 191.2 ± 33.5 ng/mL
Kinsenoside 300 mg/kg
  bone volume/tissue volume: 21.2 ± 2.2 %
  the number of trabecula: 12.8 ± 1.5 cm⁻¹
  CTx: 27.5 ± 3.1 ng/mL
  osteocalcin: 351.8 ± 80.5 ng/mL
